Source: PubChem BioAssay (NCI)
Several values for one entry are separate records, joined by “and”; a condition that tells them apart may be missing. Equal values may be shown once.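 Cells were grown in 96-well plates and exposed to each compound for 48 hours at five concentrations; endpoints were interpolated linearly between bracketing concentrations, or set to the highest concentration if not reached. GI50 marks 50% less growth. The concentration for full growth arrest is given as TGI.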

Legend:
Assay in all cases: NCI anticancer screen, dose series, 48 h
[1] = system: NCI/ADR-RES ovarian
[2] = system: T-47D breast
[3] = system: 786-0 renal
[4] = system: SF-539 CNS
[5] = system: CAKI-1 renal
[6] = system: MALME-3M melanoma
[7] = system: SNB-19 CNS
[8] = system: MOLT-4 leukemia
[9] = system: HOP-92 NSCLC
[10] = system: EKVX NSCLC

| Structure (SMILES) | GI50 [1] | TGI [1] | GI50 [2] | TGI [2] | GI50 [3] | TGI [3] | GI50 [4] | TGI [4] | GI50 [5] | TGI [5] | GI50 [6] | TGI [6] | GI50 [7] | TGI [7] | GI50 [8] | TGI [8] | GI50 [9] | TGI [9] | GI50 [10] | TGI [10] |
| --- | --- | --- | --- | --- | --- | --- | --- | --- | --- | --- | --- | --- | --- | --- | --- | --- | --- | --- | --- | --- |
| CC12CCC(O)CC1=CCC1C2CCC2(C)C(c3cccnc3)=CCC12 (stereo not given) | > 100 µM | > 100 µM | > 100 µM | > 100 µM | 50.4 µM | > 100 µM | > 100 µM | > 100 µM | > 100 µM | > 100 µM | > 100 µM | > 100 µM | > 100 µM | > 100 µM | > 100 µM | > 100 µM | 43 µM | > 100 µM | > 100 µM | > 100 µM |
| COc1ccc(-c2nnc(Nc3nc(O)c(C4=c5cc(F)ccc5=NC4=O)s3)o2)cc1 | 49.7 µM | > 100 µM | 93.2 µM | > 100 µM | 23.4 µM | 56.3 µM | 80.9 µM | > 100 µM | 28.8 µM | 99.3 µM | 34.5 µM | > 100 µM | 48.2 µM | > 100 µM | 30.4 µM | > 100 µM | 87 µM | > 100 µM | 96.1 µM | > 100 µM |
| CC(OC(=O)N(N(CCCl)S(C)(=O)=O)S(C)(=O)=O)c1ccc([N+](=O)[O-])cc1 (stereo not given) | 35.4 µM | > 100 µM | > 69.2 µM | > 100 µM | 44.7 µM | > 100 µM | 3.42 µM | > 47.5 µM | 64.3 µM | > 100 µM | 41.5 µM | > 100 µM | > 88.9 µM | > 100 µM | 43.1 µM | > 100 µM | > 100 µM | > 100 µM | 23.4 µM | > 76.9 µM |
| COC(=O)/C(=C\c1c(-c2ccccc2)[nH]c2ccccc12)S(C)(=O)=O | 3.28 µM | > 100 µM | 2.82 µM | 30.8 µM | 7.46 µM | 23.9 µM | 3.11 µM | 11.5 µM | 1.83 µM | 82.6 µM | 12.2 µM | 44.2 µM | 8.68 µM | > 100 µM | 4.72 µM | > 100 µM | 6.56 µM | 50.2 µM | 8.92 µM | > 100 µM |
| Nc1nc(-c2cc(-c3cccc4ccccc34)nc(N)n2)cc(-c2cccc3ccccc23)n1 |  | > 100 µM |  | > 100 µM |  | > 100 µM |  | > 100 µM |  | > 100 µM |  | > 100 µM |  | > 100 µM |  | > 100 µM |  | > 100 µM |  | > 100 µM |
| CCN(CC)CCCNc1[nH]ncc2c(C)c3nc4ccccc4c3cc12 | 56.1 µM | 200 µM | 1.01 µM | 17 µM and 20.2 µM | 0.346 µM | 1.58 µM and 4.57 µM | 0.373 µM | 1.81 µM and 6.09 µM | 4.07 µM | 18.1 µM and 17.7 µM | 0.918 µM | 2.34 µM and 3.81 µM | 0.857 µM | 5.96 µM and 4.79 µM | 0.0288 µM | 0.183 µM and 0.0447 µM | 0.613 µM | 3.63 µM and 5.8 µM | 0.887 µM | 3.44 µM and 8.38 µM |
| Cc1ncc(-c2ccnc(Nc3ccc(S(C)(=O)=O)cc3)n2)n1C(C)C | 2.46 µM | > 10 µM | 1.38 µM | > 8.75 µM | 0.922 µM | > 10 µM | 0.56 µM | 2.71 µM | 0.805 µM | > 10 µM | 2.56 µM | 6.04 µM | 2.23 µM | > 10 µM | 1.03 µM | 4.99 µM | 0.926 µM | 6.16 µM | 1.56 µM | 5.54 µM |
